# Source: US6706764B2, “Use of creatine or creatine analogs for the treatment of diseases of the nervous system” (Avicena Group, Inc., priority 1994, dated 2004)
# Experiments:
# [1] = compared with phosphocreatine; cited from earlier work
# MPTP toxicity = MPTP toxicity in mice, earlier work of the inventors; format: in vivo
# Text: This metabolite is formed by the activity of monoamine oxidase on MPTP. Inhibitors of monoamine oxidase block the neurotoxicity of MPTP in both mice and primates. The specificity of the neurotoxic effects of MPP^+ for dopaminergic neurons appears to be due to the uptake of MPP^+ by the synaptic dopamine transporter. Blockers of this transporter prevent MPP^+ neurotoxicity. […] It binds to complex I at the retenone binding site. […] In vivo studies have shown that MPTP can deplete striatal ATP concentrations in mice.
# [2] = test system: malonate striatal excitotoxic lesions; details: cited from earlier work; for protection against lesions in the malonate animal model: intrastriatal malonate; for ATP depletion produced by malonate in vivo: rat
# [3] = cited from earlier work
# [4] = cited from earlier work; remark: listed apart in the source
# viral infections = details: 1% dietary; cited from earlier work
# creatine kinase [5] = details: forward reaction, both in vitro and in vivo; cited from earlier work
# [6] = mice, up to 1% of diet for 2 weeks or for over 4 weeks; cited from earlier work
# [7] = test system: MPTP induced dopaminiergic toxicity; test: MPTP model for Parkinson's disease, striatal dopamine, DOPAC and HVA by HPLC; format: in vivo, male Swiss Webster mice; details: for neuroprotection against dopamine depletions: dose response
# Protocol: The effect of two representative creatine compounds, creatine and cyclocreatine, were evaluated using this model. Creatine and cyclocreatine were administered in the initial pilot experiment as 1% formulation in the feed of animals, and was administered for three weeks before MPTP treatment. MPTP was administered intraperitoneally at a dose of 15 mg/kg every 2 hours for five injections. The animals then remained on either creatine or cyclocreaine supplemented diets for 1 week before sacrifice. The mice examined were male Swiss Webster mice weighing 30-35 grams obtained from Taconic Farms. Control groups recieved either normal saline or MPTP hydrochloride alone. MPTP was administered in 0.1 ml of water. The MPTP was obtained from Research Biochemicals. Eight to twelve animals were examined in each group. Following sacrifice the two striata were rapidly dissected and placed in chilled 0.1 M perchloric acid. Tissue was subsequently sonicated, and aliquots were taken for protein quantification using a fluorometer assay. Dopamine, 3,4-dihydroxyphenylacetic acid (DOPAC), and homovanillic acid (HVA) were quantified by HPLC with 16 electrode electrochemical detection. Concentrations of dopamine and metabolites were expressed as nmol/mg protein. The statistical significance of differences was determined by one-way ANOVA followed by Fisher PLSDpost-hoc test to compare group means.
# A dose response study was conducted where the creatine dose was 0.25%-3.0% of the diet and cyclocreatine 0.25-1.0% of the diet.
# [8] = test system: malonate induced striatal lesions; test: Malonate induced striatal lesions, model for Huntington's disease; format: in vivo, rats
# Protocol: We initially examined whether oral administration of creatine or its analogue cyclocreatine could attenuate malonate lesions. Creatine was administered orally to rats in their feed at doses of 0.25-3.0% of the diet. Cyclocreatine was administered at 0.2-1.0%. Controls received unsupplemented otherwise identical diets. The compounds were administered for two weeks prior to the administration of malonate and then for a further week prior to sacrifice. Malonate was dissolved in distilled deionized water and the pH wad adjusted to 7.4 with 0.1 m HCI. Intrastriatal injections of 1.5 ul of malonate containing 3 μmol were made into the striatum at the level of the Bregma 2.4 mm lateral to the midline and 4.5 mm ventral to the dura. Animals were sacrificed at 7 days by decapitation, and the brains were quickly removed and placed in ice cold 0.9% saline solution. Brains were sectioned at 2 mm intervals. Slices were then placed posterior side down in 2% 2,3,5-triphenyltetrazolium chloride. Slices were stained in the dark at room temperature for 30 minutes and then removed and placed in 4% paraformaldehyde, pH 7.3. Lesions, noted by pale staining, were evaluated on the posterior surface of each section using a Bioquant 4 system by an experienced histologist blinded to experimental conditions. These measurements have been validated by comparing them to measurements obtained on adjacent Nissl stain sections.
# [9] = fed to mice, rats and chicks; cited from earlier work
# creatine kinase [10] = details: cited from earlier work
# [11] = intravenous injection, up to 8 grams/day, patients with cardiac diseases; cited from earlier work
# [12] = pilot, 1% in feed, oral, FIG. 4
compound,measurement,setting,value
3-phosphoryl-1-carboxymethyl-2-iminoimidazolidine [cyclocreatine phosphate],stability of the P-N bond,[1],more stable than that of phosphocreatine
"COC1=C(OC)C(=O)C(C/C=C(\C)CC/C=C(\C)CC/C=C(\C)CC/C=C(\C)CC/C=C(\C)CC/C=C(\C)CC/C=C(\C)CC/C=C(\C)CC/C=C(\C)CCC=C(C)C)=C(C)C1=O [Q10, coenzyme Q10]",protection against MPTP toxicity,MPTP toxicity,significantly protect
same,protection against lesions in the malonate animal model,[2],dose dependent protection
same,ATP depletion produced by malonate in vivo,[2],attenuated
"NC1=NCCN1CC(=O)O [cyclocreatine, 1-carboxymethyl-2-iminoimidazolidine]",growth,[3]; in vivo,grew more slowly than control chicks
same,mortality,"[3]; newly hatched chicks, diet containing 1%, in the presence of antibiotics",without significant mortality
same,accumulation in different organs,[4]; feeding animals e.g. 1% dietary,mM concentrations
same,tissue uptake,[4]; rats receiving dietary 1%,"taken up by muscle, heart and brain"
same,antiviral activity,viral infections,observed
same,phosphorylation by creatine kinase,creatine kinase [5],phosphorylated efficiently
same,gross adverse effects,[6],without gross adverse effects
same,protection against HVA depletion,"[7]; 0.5% of the diet, FIG. 5",not seen
same,effect on 3-4-dihydroxyphenyl acetic acid (DOPAC),"[7]; dose response study, FIG. 5",neuroprotection effects
same,effect on homovanillic acid (HVA),"[7]; dose response study, FIG. 5",neuroprotection effects
same,neuroprotection against dopamine depletions,"[7]; 0.5% of the diet, FIG. 5",significant protection
same,neuroprotection against dopamine depletions,"[7]; 1.0% of the diet, FIG. 5",significant protection
same,effect against MPTP induced depletions of homovanillic acid,[7]; [12],effective
same,neuroprotection against MPTP induced dopamine depletions,[7]; [12],significant neuroprotection
same,neuroprotective effect compared with creatine,[7]; [12],greater than that seen with creatine alone
same,protection against DOPAC depletions induced by MPTP,[7]; [12],significantly protected
same,neuroprotection against malonate induced striatal lesions,"[8]; dose of 1% in the diet, FIG. 2",significant
same,"neuroprotection against malonate induced striatal lesions, dose response","[8]; increasing doses in the diet: creatine 0.25-3%, cyclocreatine 0.2-1.0%, FIG. 2",dose dependent neuroprotective effects
same,protection against striatal malonate lesions (lesion volume),"[8]; initial pilot experiment, oral supplementation in feed, FIG. 1",protected against striatal malonate lesions
same,tolerability,[9],well-tolerated
N=C(N)N(CC(=O)O)CC1CO1 (stereo not shown) [epoxycreatine],inactivation of creatine kinase,creatine kinase [10],completely and irreversibly inactivate
Nc1nnc(-c2cccc(Cl)c2Cl)c(N)n1 [lamotrigine],protection against lesions in the malonate animal model,[2],attenuates the lesions
NC(=O)c1cccnc1 [nicotinimide],protection against lesions in the malonate animal model,[2],dose dependent protection
same,ATP depletion produced by malonate in vivo,[2],attenuated
O=C(O)CCC(=O)O [succinate],malonate lesions on co-injection,[2]; co-injection with malonate,blocks the lesions
N-phosphoryl creatine [creatine phosphate],adverse side effects,[11],no adverse side effects
isoepoxycreatine,inactivation of creatine kinase,creatine kinase [10],completely and irreversibly inactivate
